# In US4654348A, “Pyrazolo[4,3-d]pyrimidine derivative, process for its production, antihyperlipidemic agent containing it, its intermediate, and process for the production of the intermediate” (Nissan Chemical Industries Ltd., priority 1984, dated 1987):
# System: emulsion-induced hyperlipidemic rats
# Assay: Test 1: antihyperlipidemic activity in emulsion-induced hyperlipidemic rats (serum Chol, HDL-Chol, liver weight)
# Type: in vivo, male S.D. rats
# Settings: 3 days, vs control; for inhibition in vivo at 300 mg/kg / change in vivo at 300 mg/kg: Rattus norvegicus, po, 72 h, 300 mg/kg/day via stomach tube; for inhibition in vivo at 300 mg/kg: read-out: Reduction rate of serum Chol.; for change in vivo at 300 mg/kg: read-out: Increase rate of serum HDL-Chol; for Degree of hepatomegaly (change rate of the liver weight): liver weight per 100 g body weight, 300 mg/kg/day
# Method: The antihyperlipidemic activity in emulsion-induced hyperlipidemic rats:
# Male S.D. rats weighing 80-90 g (4 weeks old) were used. They were divided into groups of 5 to 6 rats each. The test compounds suspended in 0.5% CMC-Na(carboxymethyl cellulose sodium salt) were given to the rats in a daily dose of 4 ml/kg (i.e. 300 mg/kg of the test compounds) via stomach tube every 10:00 a.m. After 30 min., lipids emulsion having the following composition was orally given to the rats in an amount of 2.5 ml per rat.
# Cholic acid sodium salt 10.0 g
# During the experimental period of 3 days, the rats were fed on a standard commercial diet and water ad libitum. […] The total cholesterol and HDL cholesterol were measured.
# The weight of the liver was measured. To the control group, only the aqueous CMC-Na solution and the lipids emulsion were given.
# The fractionation of lipoproteins was conducted by a dextran sulfate-MgCl2 precipitation method.
# Cholesterol in serum was measured by means of a cholesterol measuring kit (Cholesterol C-Test Wako, manufactured by Wako Junyaku Co., Ltd.), and cholesterol in HDL was measured by means of NC Hi-Set, manufactured by Nippon Chemiphar Co., Ltd.
# Further, the reduction rate of Chol was calculated by the following equation. [formula] where A is the amount of serum Chol (mg/dl) of the control group, and B is the amount of serum Chol (mg/dl) of the group to which the therapeutic agent was administered.
# Likewise, the increase rate of HDL-Chol was calculated by the following equation. [formula] where C is the amount of serum HDL-Chol (mg/dl) of the control group, and D is the amount of serum HDL-Chol (mg/dl) of the group to which the therapeutic agent was administered.
# The degree of hepatomegaly (i.e. the change rate of the liver weight) was calculated by the following equation. [formula] where E is the liver weight (g) per 100 g of the body weight of the control group, and F is the liver weight (g) per 100 g of the body weight of the group to which the therapeutic agent was administered.
Degree of hepatomegaly (change rate of the liver weight),Structure (SMILES),inhibition in vivo at 300 mg/kg,change in vivo at 300 mg/kg
–,"CCCCCCCCOc1c2ncnc(SC(C)(C)C(=O)OCC)c2nn1C [Example 27, 2-Methyl-3-n-octyloxy-7-(1-ethoxycarbonyl1-methyl-ethylthio)-pyrazolo[4,3-d]pyrimidine]",16%,–
–,"CCCCCCCCCCCCCCCCOc1c2ncnc(SCC(=O)OC(C)C)c2nn1C [Example 16, 2-Methyl-3-n-hexadecyloxy-7-isopropoxycarbonylmethylthio-pyrazolo[4,3-d]pyrimidine]",26%,–
–,"CCCCC/C=C\C/C=C\CCCCCCCCOc1c2ncnc(SCc3ccccc3)c2nn1C [Example 62, 2-Methyl-linoleyloxy-7-benzylthio-pyrazolo[4,3-d]pyrimidine]",17%,–
–,"CCCCCCCCCCCCCCCCOc1c2ncnc(SCCCCCCCCCCCCCCCC)c2nn1C [Example 24, 2-Methyl-3-n-hexadecyloxy-7-n-hexadecylthio-pyrazolo[4,3-d]pyrimidine]",41%,–
–,"CCCCOCCOCCOc1c2ncnc(SCC(=O)OCC)c2nn1C [Example 39, 2-Methyl-3-(3,6-dioxadecyloxy)-7-ethoxycarbonylmethylthio-pyrazolo[4,3-d]pyrimidine]",11%,–
–,"CCOC(=O)CSc1ncnc2c(OCCC(C)CCCC(C)CCCC(C)C)n(C)nc12 (stereo not shown) [Example 41, 2-Methyl-3-(3,7,11-trimethyl-dodecyloxy)-7-ethoxycarbonylmethylthio-pyrazolo[4,3-d]pyrimidine]",48%,–
–,"CCCCC/C=C\C/C=C\CCCCCCCCOc1c2ncnc(SC(C(=O)OCC)C(C)C)c2nn1C (stereo not shown) [Example 63, 2-Methyl-3-linoleyloxy-7-(1-ethoxycarbonyl-2-methylpropylthio)pyrazolo[4,3-d]pyrimidine]",39%,–
–,"CCCC=CCCOc1c2ncnc(SCC(=O)OCC)c2nn1-c1ccccc1 [Example 53, 2-Phenyl-3-(3-heptenyloxy)-7-ethoxycarbonylmethylthio-pyrazolo[4,3-d]pyrimidine]",11%,–
–,"CCCCCCCCCCCCCCCCOc1c2ncnc(SC3C(=O)OCC3C)c2nn1C (stereo not shown) [Example 25, 2-Methyl-3-n-hexadecyloxy-7-[4-(3-methyl-5-oxotetrahydrofuranyl)thio]-pyrazolo[4,3-d]pyrimidine]",11%,–
–,"CCCCCCCC/C=C\CCCCCCCCCCCCOc1c2ncnc(SCC(=O)OCC)c2nn1C [Example 69, 2-Methyl-3-erucyloxy-7-ethoxycarbonylmethylthio-pyrazolo[4,3-d]pyrimidine]",59%,–
–,"CCCCCCCCOc1c2ncnc(SCC(=O)OCC)c2nn1C [Example 42, 2-Methyl-3-n-octyloxy-7-ethoxycarbonylmethylthio-pyrazolo[4,3-d]pyrimidine]",32%,–
–,"CCCCCCCCCCCCOc1c2ncnc(SC(C)(C)C(=O)OCC)c2nn1C [Example 28, 2-Methyl-3-n-dodecyloxy-7-(1-ethoxycarbonyl-1-methyl-ethylthio)-pyrazolo[4,3-d]pyrimidine]",36%,–
–,"CCCCC/C=C\C/C=C\CCCCCCCCOc1c2ncnc(SCCCCCC)c2nn1C [Example 55, 2-Methyl-3-linoleyloxy-7-n-hexylthio-pyrazolo[4,3-d]pyrimidine]",58%,–
–,"CCCCCCCCCCCCCCCCCCCCOc1c2ncnc(SCC(=O)OCC)c2nn1C [Example 8, 2-Methyl-3-n-eicosanyloxy-7-ethoxycarbonylmethylthio-pyrazolo[4,3-d]pyrimidine]",37%,–
–,"CCOC(=O)CSc1ncnc2c(OCCOCc3ccccc3)n(C)nc12 [Example 36, 2-Methyl-3-(2-benzyloxyethoxy)-7-ethoxycarbonylmethylthio-pyrazolo[4,3-d]pyrimidine]",44%,–
–,"CCCCC/C=C\C/C=C\CCCCCCCCOc1c2ncnc(SCC#N)c2nn1C [Example 57, 2-Methyl-3-linoleyloxy-7-cyanomethylthio-pyrazolo[4,3-d]pyrimidine]",61%,–
–,"CCCCC/C=C\C/C=C\CCCCCCCCOc1c2ncnc(SCC(=O)OCCCC)c2nn1C [Example 56, 2-Methyl-3-linoleyloxy-7-n-butoxycarbonylmethylthio-pyrazolo[4,3-d]pyrimidine]",60%,–
–,"CCCCCCCCCCCCCCCCOc1c2ncnc(SCC(=O)OCCCC)c2nn1C [Example 33, 2-Methyl-3-n-hexadecyloxy-7-n-butoxycarbonylmethylthio-pyrazolo[4,3-d]pyrimidine]",39%,–

Degree of hepatomegaly (change rate of the liver weight),Structure (SMILES),inhibition in vivo at 300 mg/kg,change in vivo at 300 mg/kg
–,"CCCCCCCCCCCCCCCCOc1c2ncnc(SCCc3ccccc3)c2nn1C [Example 21, 2-Methyl-3-n-hexadecyloxy-7-phenethylthio-pyrazolo[d]pyrimidine]",10%,–
–,"CCCCCCC#CCCOc1c2ncnc(SCC(=O)OCC)c2nn1C [Example 74, 2-Methyl-3-(3-decynyloxy)-7-ethoxycarbonylmethylthio-pyrazolo[4,3-d]pyrimidine]",16%,–
–,"CCCCC/C=C\C/C=C\CCCCCCCCOc1c2ncnc(SCCCC(=O)OCC)c2nn1C [Example 59, 2-Methyl-3-linoleyloxy-7-[3-(ethoxycarbonyl)propylthio]-pyrazolo[4,3-d]pyrimidine]",68%,–
–,"CCCCCCCCCCCCCCCCOc1c2ncnc(SCc3ccc(Cl)c(Cl)c3)c2nn1C [Example 20, 2-Methyl-3-n-hexadecyloxy-7-(3,4-dichlorophenylmethylthio)-pyrazolo[4,3-d]pyrimidine]",19%,–
+3%,CCCCCCCCCCCCCCCCCOc1c2ncnc(SCC(=O)OCC)c2nn1C [Example 5],21%,38%
–,"CCOC(=O)CSc1ncnc2c(OCCC(C)CCCC(C)CCCC(C)CCCC(C)C)n(C)nc12 (stereo not shown) [Example 40, 2-Methyl-3-(3,7,11,15-tetramethylhexadecyloxy)-7-ethoxycarbonylmethylthio-pyrazolo[4,3-d]pyrimidine]",50%,–
–,CCCCCCCCCCCCCCOc1c2ncnc(SCC(=O)OCC)c2nn1C [Example 3],41%,–
–,CCCCC/C=C\C/C=C\CCCCCCCCOc1c2ncnc(SCCCCCCCCCCC(=O)OCC)c2nn1C [Example 61],35%,–
-1%,"CCCCCCCCCCCCCCCCCCOc1c2ncnc(SCC(=O)OCC)c2nn1C [Example 6, 2-Methyl-3-n-octadecyloxy-7-ethoxycarbonylmethylthio-pyrazolo[4,3-d]pyrimidine]",31%,9%
–,"CCOC(=O)CSc1ncnc2c(OC3CCC(C4CCCCC4)CC3)n(C)nc12 (stereo not shown) [Example 34, 2-Methyl-3-(4-cyclohexyl-cyclohexyloxy)-7-ethoxycarbonylmethylthio-pyrazolo[4,3-d]pyrimidine]",12%,–
–,"CCCCCCCCCCCCOc1c2ncnc(SC(C)(C)C(=O)OCC)c2nn1-c1ccccc1 [Example 32, 2-Phenyl-3-n-dodecyloxy-7-(1-ethoxycarbonyl-1-methylethylthio)-pyrazolo[4,3-d]pyrimidine]",50%,–
–,"CCCCCCCOc1c2ncnc(SCC(=O)OCC)c2nn1-c1ccccc1 [Example 31, 2-Phenyl-3-n-heptyloxy-7-ethoxycarbonylmethylthio-pyrazolo[4,3-d]pyrimidine]",51%,–
–,"C=CCSc1ncnc2c(OCCCCCCCC/C=C\C/C=C\CCCCC)n(C)nc12 [Example 64, 2-Methyl-3-linoleyloxy-7-allylthio-pyrazolo[4,3-d]pyrimidine]",12%,–
–,"CCCCCCCCC#CCCCCCCCCOc1c2ncnc(SCC(=O)OCC)c2nn1C [Example 44, 2-Methyl-3-(9-octadecynyloxy)-7-ethoxycarbonylmethylthio-pyrazolo[4,3-d]pyrimidine]",39%,–
–,"CCCCCCCCCCCCCCCCOc1c2ncnc(SCC(=O)OCC)c2nn1-c1ccccc1 [Example 52, 2-Phenyl-3-n-hexadecyloxy-7-ethoxycarbonylmethylthio-pyrazolo[4,3-d]pyrimidine]",30%,–
–,"C=CCCCCCCCCOc1c2ncnc(SCC(=O)OCC)c2nn1-c1ccccc1 [Example 51, 2-Phenyl-3-(9-decenyloxy)-7-ethoxycarbonylmethylthio-pyrazolo[4,3-d]pyrimidine]",58%,–
–,"CCCCCC/C=C/CCCCCCCCCCOc1c2ncnc(SCC(=O)OCC)c2nn1C [Example 72, 2-Methyl-3-vaccenyloxy-7-ethoxycarbonylmethylthio-pyrazolo[4,3-d]pyrimidine]",58%,–
–,"CCOC(=O)C(C)(C)Sc1ncnc2c(OCCO)n(C)nc12 [Example 30, 2-Methyl-3-(2-hydroxyethyloxy)-7-(1-ethoxycarbonyl-1-methyl-ethylthio) pyrazolo[4,3-d]pyrimidine]",28%,–
